{"source": "patent US4518581A", "about": "“Imparting low- or anti-cariogenic property to orally-usable products” (Kabushiki Kaisha Hayashibara Seibutsu Kagaku Kenkyujo, priority 1981, dated 1985)", "key": {"[1]": {"target": "T1, water-insoluble glucan producing enzyme (Streptococcus downei, UniProt P27470)", "T1 construct": "endogenous in cells; host or cells: Streptococcus mutans 6715 strain (today S. sobrinus), culture supernatant, ammonium sulfate precipitate, dialyzed", "T1 sequence (P27470 39-1592)": "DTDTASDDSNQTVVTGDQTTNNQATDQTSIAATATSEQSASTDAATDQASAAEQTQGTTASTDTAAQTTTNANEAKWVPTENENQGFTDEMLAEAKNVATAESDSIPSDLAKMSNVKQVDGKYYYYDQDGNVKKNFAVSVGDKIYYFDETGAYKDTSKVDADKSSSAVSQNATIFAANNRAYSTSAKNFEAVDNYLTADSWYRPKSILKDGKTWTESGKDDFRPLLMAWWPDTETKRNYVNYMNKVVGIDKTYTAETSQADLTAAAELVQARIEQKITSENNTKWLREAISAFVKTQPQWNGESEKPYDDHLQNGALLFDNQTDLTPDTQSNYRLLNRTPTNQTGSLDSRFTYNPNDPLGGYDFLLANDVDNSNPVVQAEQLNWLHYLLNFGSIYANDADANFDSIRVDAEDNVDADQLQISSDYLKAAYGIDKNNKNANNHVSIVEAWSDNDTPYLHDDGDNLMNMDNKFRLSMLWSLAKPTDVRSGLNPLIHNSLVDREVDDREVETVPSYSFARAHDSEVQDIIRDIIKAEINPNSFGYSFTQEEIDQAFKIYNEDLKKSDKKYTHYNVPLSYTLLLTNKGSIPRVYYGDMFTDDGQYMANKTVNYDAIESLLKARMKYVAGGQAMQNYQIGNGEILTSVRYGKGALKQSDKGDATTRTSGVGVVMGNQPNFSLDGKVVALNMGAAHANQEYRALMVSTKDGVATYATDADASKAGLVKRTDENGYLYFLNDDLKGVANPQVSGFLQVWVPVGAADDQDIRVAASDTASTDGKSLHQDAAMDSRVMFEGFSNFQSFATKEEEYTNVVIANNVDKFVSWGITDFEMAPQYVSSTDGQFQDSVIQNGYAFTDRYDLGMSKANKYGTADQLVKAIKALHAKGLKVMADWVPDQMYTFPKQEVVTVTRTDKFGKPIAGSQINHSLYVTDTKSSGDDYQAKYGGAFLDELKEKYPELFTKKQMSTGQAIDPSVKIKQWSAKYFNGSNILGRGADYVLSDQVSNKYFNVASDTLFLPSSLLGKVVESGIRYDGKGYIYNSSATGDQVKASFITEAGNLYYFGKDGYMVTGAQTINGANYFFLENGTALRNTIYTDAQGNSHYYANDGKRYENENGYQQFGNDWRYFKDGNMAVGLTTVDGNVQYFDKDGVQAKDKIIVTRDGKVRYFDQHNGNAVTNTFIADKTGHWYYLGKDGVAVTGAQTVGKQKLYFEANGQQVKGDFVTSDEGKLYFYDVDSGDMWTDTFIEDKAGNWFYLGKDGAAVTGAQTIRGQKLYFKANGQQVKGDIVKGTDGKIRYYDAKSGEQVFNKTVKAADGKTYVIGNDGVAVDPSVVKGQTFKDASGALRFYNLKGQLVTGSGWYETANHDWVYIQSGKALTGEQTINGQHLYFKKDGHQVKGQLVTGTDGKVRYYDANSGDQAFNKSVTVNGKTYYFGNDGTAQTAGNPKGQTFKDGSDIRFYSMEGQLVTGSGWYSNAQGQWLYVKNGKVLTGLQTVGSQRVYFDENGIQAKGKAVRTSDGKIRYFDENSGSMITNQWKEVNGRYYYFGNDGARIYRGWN", "assay": "Effect of saccharides on formation of water-insoluble glucan from sucrose (Experiment 3)", "assay_type": "biochemical, Streptococcus mutans 6715 strain", "details": "1 ml 4 w/v % sucrose plus 1 ml 4 w/v % saccharide, 0.02 units enzyme, 37° C., 16 hours; sucrose control 300", "method": "After completion of the cultivation, the culture was separated into cell precipitant and supernatant. Thereafter, to the supernatant was added with ammonium sulfate to give 60% saturation, and the resultant precipitant was dialyzed against 0.1M phosphate buffer (pH 7.2) to obtain an aqueous solution containing the enzyme.\nThe titers of the enzyme were assayed as follows: A mixture solution, consisting of 1 ml of 0.2M aqueous sucrose solution, 1 ml of water, 1 ml of 0.1M phosphate buffer containing 0.05 w/v % NaN3, and 0.5 ml of the enzyme solution (below 0.05 units), is incubated at 37° C. for 9 hours, followed by centrifugation of the reaction mixture. The resultant precipitant is mixed with 4 ml of 0.5N sodium hydroxide solution, and then incubated at this temperature for an additional one hour to dissolve the precipitant. The amount of water-insoluble glucan formed during the enzymatic reaction is then measured. One unit of the enzyme is defined as the amount of enzyme that transfers 1 μmole glucose from sucrose to the water-insoluble glucan in one minute.\nEffects of some saccharides on the formation of water-insoluble glucan were tested: Water-insoluble glucan formation and inhibition thereof were determined according to the enzyme assay method as described in EXPERIMENT 1, except that the mixture solution contained sucrose, or sucrose and each saccharide as listed in TABLE I. The experiment was carried out as follows: A mixture solution, consisting of 1 ml of 4 w/v % aqueous sucrose solution, 1 ml of 4 w/v % aqueous solution of each saccharide as listed in TABLE I, 1.5 ml of 0.1M phosphate buffer containing 0.05 w/v % NaN3, and 0.5 ml of the enzyme solution (0.02 units), was incubated at 37° C. for 16 hours, and the water-insoluble glucan formation in the reaction mixture was determined according to the enzyme assy method.\nIn a control experiment, 1 ml of the above described saccharide solution was replaced with the same amount of water.\nThe inhibition degree was calculated with following equation:\nInhibition degree (%)=100-A/B×100\nwhere A and B are respective amounts of the water-insoluble glucan formed (μg/ml) when the mixture solution contained sucrose or sucrose and each of the saccharides."}, "[2]": {"test_system": "Streptococcus mutans 6715 strain", "assay": "Organic acid formation from saccharides by Streptococcus mutans cells, pH-measurement (Experiment 4)", "assay_type": "cell-based", "details": "37° C., 30 minutes; for organic acid formation from the saccharide: Streptococcus mutans 6715 cells; for pH-Level of the reaction mixture (organic acid formation): cell suspension, Stephan's buffer (pH 7.0), saccharide solution", "method": "Organic acid formation from some saccharides by Streptococcus mutans was tested: Streptococcus mutans 6715 strain was cultivaed similarly as in EXPERIMENT 1, and the cells, obtained by centrifuging the culture, were washed with 0.9 w/v % sodium chloride solution, followed by additional centrifugation. Two ml of a mixture solution, consisting of 0.2 ml of the cell suspension, prepared from about 100 ml of the culture, 1.5 ml of Stephan's buffer, and 0.3 ml aqueous solution of each saccharide as listed in TABLE II, was incubated at 37° C. for 30 minutes, followed by pH-measurement of the reaction mixture. The Stephan's buffer was prepared by the method as reported by R. M. Stephan et al., Journal of Dental Research, Vol.26, pp.15-41 (1947): One ml of Solution I, prepared by dissolving 17.89 g Na2 HPO4. 12H2 O, 7.92 g KOH and 6.81 g KH2 PO4 in water to give a final volume of 100 ml, was placed in a 100-ml volumetric flask, and mixed with about 90 ml of water. To the flask was added 1 ml of Solution II, prepared by dissolving 4.54 g KH2 PO4, 0.32 g MgSO4.7H2 O, 0.57 g CaSO4.2H2 O and 10 ml of 3.5% hydrochloric acid solution in water to give a final volume of 100 ml. This mixture was diluted with additional water to obtain 100 ml of Stephan's buffer (pH 7.0).\nThe results are given in TABLE II, wherein the organic acid formation from the saccharides can be estimated by the pH-values."}, "[3]": {"target": "T1, water-insoluble glucan producing enzyme", "assay": "Effect of saccharides on formation of water-insoluble glucan from sucrose (Experiment 3)", "assay_type": "biochemical, Streptococcus mutans 6715 strain", "details": "saccharide reduced to 10% against sucrose: 1 ml 4 w/v % sucrose plus 1 ml 0.4 w/v % saccharide, 37° C., 16 hours"}}, "data": [{"smiles": "OC[C@H]1O[C@H](OC[C@H]2O[C@H](OC[C@H]3OC(O)[C@H](O)[C@@H](O)[C@@H]3O)[C@H](O)[C@@H](O)[C@@H]2O)[C@H](O)[C@@H](O)[C@@H]1O", "note": "(stereo partly shown) [Isomaltotriose]", "values": [{"measurement": "A: amounts of water-insoluble glucan formed", "setting": "[1]", "value": 36, "unit": "µg/mL"}, {"measurement": "organic acid formation from the saccharide", "setting": "[2]", "value": "no organic acid formation"}, {"measurement": "pH-Level of the reaction mixture (organic acid formation)", "setting": "[2]", "value": 7.0}, {"measurement": "C: inhibition degree of water-insoluble glucan formation", "setting": "[3]", "value": 49, "unit": "%"}, {"measurement": "C: inhibition degree of water-insoluble glucan formation", "setting": "[3]; listed as isomaltotriose", "value": "45-60%"}]}, {"smiles": "OC[C@H]1O[C@H](OC[C@H]2O[C@H](O[C@H]3[C@H](O)[C@@H](O)C(O)O[C@@H]3CO)[C@H](O)[C@@H](O)[C@@H]2O)[C@H](O)[C@@H](O)[C@@H]1O", "note": "(stereo partly drawn) [Panose, 4-O-α-isomaltosyl glucose]", "values": [{"measurement": "A: amounts of water-insoluble glucan formed", "setting": "[1]", "value": 48, "unit": "µg/mL"}, {"measurement": "organic acid formation from the saccharide", "setting": "[2]", "value": "no organic acid formation"}, {"measurement": "pH-Level of the reaction mixture (organic acid formation)", "setting": "[2]", "value": 7.0}, {"measurement": "C: inhibition degree of water-insoluble glucan formation", "setting": "[3]", "value": 47, "unit": "%"}, {"measurement": "C: inhibition degree of water-insoluble glucan formation", "setting": "[3]; listed as panose", "value": "45-60%"}]}]}
